# Results taken from US20090197926A1, “BENZIMIDAZOLES AND THEIR USE FOR THE TREATMENT OF DIABETES” (priority 2006, published 2009).
# Target: T1, human DGAT1 (Homo sapiens, UniProt O75907)
# T1 construct: made in house; host or cells: Sf9 insect cells (recombinant baculovirus); membrane fraction
# T1 sequence (O75907 1-488): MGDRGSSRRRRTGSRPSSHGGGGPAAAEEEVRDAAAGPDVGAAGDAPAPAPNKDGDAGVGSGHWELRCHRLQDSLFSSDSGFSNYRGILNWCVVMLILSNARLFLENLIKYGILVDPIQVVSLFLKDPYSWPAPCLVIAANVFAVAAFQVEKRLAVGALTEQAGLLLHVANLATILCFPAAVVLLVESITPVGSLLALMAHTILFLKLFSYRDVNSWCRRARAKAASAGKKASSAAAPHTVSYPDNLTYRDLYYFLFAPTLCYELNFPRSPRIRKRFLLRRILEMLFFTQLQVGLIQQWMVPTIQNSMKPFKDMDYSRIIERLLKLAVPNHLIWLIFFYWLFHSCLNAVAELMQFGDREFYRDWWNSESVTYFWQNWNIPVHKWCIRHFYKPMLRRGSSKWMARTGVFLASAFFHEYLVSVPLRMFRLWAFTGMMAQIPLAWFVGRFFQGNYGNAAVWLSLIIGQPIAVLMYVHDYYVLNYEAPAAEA
# Assay: Human Enzyme Assay (DGAT1 inhibition)
# Assay type: biochemical
# Settings: human DGAT1 expressed in insect cell (sf9) membranes; 14C oleoyl coenzyme A, 1,2 dioleoyl-sn-glycerol, room temperature 30 minutes
# Method: The in vitro assay to identify DGAT1 inhibitors uses human DGAT1 expressed in insect cell membranes as the enzyme source (Proc. Natl. Acad. Sci. 1998, 95, 13018-13023). Briefly, sf9 cells were infected with recombinant baculovirus containing human DGAT1 coding sequences and harvested after 48 h. Cells were lysed by sonication and membranes isolated by centrifuging at 28000 rpm for 1 h at 4° C. on a 41% sucrose gradient. The membrane fraction at the interphase was collected, washed, and stored in liquid nitrogen.
# DGAT1 activity was assayed by a modification of the method described by Coleman (Methods in Enzymology 1992, 209, 98-102). Compound at 1-10 μM was incubated with 0.4 μg membrane protein, 5 mM MgCl2, and 100 μM 1,2 dioleoyl-sn-glycerol in a total assay volume of 200 μl in plastic tubes. The reaction was started by adding ^14C oleoyl coenzyme A (30 μM final concentration) and incubated at room temperature for 30 minutes. The reaction was stopped by adding 1.5 mL 2-propanol:heptane:water (80:20:2). Radioactive triolein product was separated into the organic phase by adding 1 mL heptane and 0.5 mL 0.1 M carbonate buffer pH 9.5. DGAT1 activity was quantified by counting aliquots of the upper heptane layer by liquid scintillography.
row,Compound,IC50 [nM]
1,"O=C(O)[C@H]1CC[C@H](Oc2ccc3nc(-c4nnc(Nc5cc(F)c(F)cc5F)o4)[nH]c3c2F)CC1 [Example 18, trans-4-[[4-fluoro-2-[5-[(2,4,5-trifluorophenyl)amino]-1,3,4-oxadiazol-2-yl]-3H-benzoimidazol-5-yl]oxy]cyclohexane-1-carboxylic Acid]",16
2,"O=C(O)C[C@H]1CC[C@H](c2ccc3[nH]c(-c4nnc(Nc5cc(F)c(F)cc5F)o4)nc3c2)CC1 [Example 1, trans-2-[4-[2-[5-[(2,4,5-Trifluorophenyl)amino]-1,3,4-oxadiazol-2-yl]-1H-benzoimidazol-5-yl]cyclohexyl]acetic Acid]",11
3,"O=C(O)C[C@H]1CC[C@H](c2ccc3[nH]c(-c4nnc(Nc5ccc6c(c5)OCCO6)o4)nc3c2)CC1 [Example 6, (4-{2-[5-(2,3-Dihydrobenzo[1,4]dioxin-6-ylamino)[1,3,4]oxadiazol-2-yl]-1H-benzimidazol-5-yl}cyclohexyl)acetic Acid]",54
4,"O=C(O)[C@H]1CC[C@H](Oc2ccc3nc(-c4nnc(Nc5ccc(F)cc5)o4)[nH]c3c2F)CC1 [Example 16, trans-4-{4-Fluoro-2-[5-(4-fluorophenylamino)-1,3,4-oxadiazol-2-yl]-1H-benzimidazol-5-yloxy}cyclohexanecarboxylic acid]",23
5,"O=C(O)[C@H]1CC[C@@H](Oc2ccc3nc(-c4nnc(Nc5cc(F)c(F)cc5F)o4)[nH]c3c2F)CC1 [Example 17, cis-4-[[4-fluoro-2-[5-[(2,4,5-trifluorophenyl)amino]-1,3,4-oxadiazol-2-yl]-3H-benzoimidazol-5-yl]oxy]cyclohexane-1-carboxylic Acid]",13
6,"N#Cc1ccc(Nc2nnc(-c3nc4cc([C@H]5CC[C@H](CC(=O)O)CC5)ccc4[nH]3)o2)cc1 [Example 4, [trans-4-(2-{5-[(4-Cyanophenyl)amino]-1,3,4-oxadiazol-2-yl}-1H-benzimidazol-5-yl)cyclohexyl]acetic Acid]",19
7,"O=C(O)[C@H]1CC[C@@H](Oc2ccc3nc(-c4nnc(Nc5ccc(F)cc5)o4)[nH]c3c2F)CC1 [Example 15, cis-4-{4-Fluoro-2-[5-(4-fluorophenylamino)-1,3,4-oxadiazol-2-yl]-1H-benzimidazol-5-yloxy}cyclohexanecarboxylic Acid]",19
8,"O=C(O)[C@H]1CC[C@H](Oc2ccc3nc(-c4nnc(Nc5cc(F)c(F)cc5F)o4)[nH]c3c2)CC1 [Example 14, trans-4-[[2-[5-[(2,4,5-Trifluorophenyl)amino]-1,3,4-oxadiazol-2-yl]-3H-benzoimidazol-5-yl]oxy]cyclohexane-1-carboxylic Acid]",43

# Compounds with a lower IC50, results first:
row,IC50 [nM],Compound
1,10,"O=C(O)C[C@H]1CC[C@H](c2ccc3[nH]c(-c4nnc(Nc5ccc(F)cc5)o4)nc3c2)CC1 [Example 10, (4-{2-[5-(4-Fluorophenylamino)[1,3,4]oxadiazol-2-yl]-1H-benzimidazol-5-yl}cyclohexyl)acetic Acid]"
2,10,"O=C(O)C[C@H]1CC[C@H](c2ccc3[nH]c(-c4nnc(Nc5ccc(F)c(F)c5)o4)nc3c2)CC1 [Example 2, trans-2-[4-[2-[5-[(3,4-Difluorophenyl)amino]-1,3,4-oxadiazol-2-yl]-1H-benzoimidazol-5-yl]cyclohexyl]acetic Acid]"
3,8,"O=C(O)C[C@H]1CC[C@H](c2ccc3[nH]c(-c4nnc(Nc5cccc(Cl)c5)o4)nc3c2)CC1 [Example 8, (4-{2-[5-(3-Chlorophenylamino)[1,3,4]oxadiazol-2-yl]-1H-benzimidazol-5-yl}-cyclohexyl)acetic Acid]"
4,6,"O=C(O)C[C@H]1CC[C@H](c2ccc3[nH]c(-c4nnc(Nc5cccc(OCc6ccccc6)c5)o4)nc3c2)CC1 [Example 3, {trans-4-[2-(5-{[3-(Benzyloxy)phenyl]amino}-1,3,4-oxadiazol-2-yl)-1H-benzimidazol-5-yl]cyclohexyl}acetic Acid]"
5,3,"(4-{2-[5-(3,4,5-Trifluorophenylamino)[1,3,4]oxadiazol-2-yl]-1H-benzimidazol-5-yl}cyclohexyl)acetic Acid [Example 11]"
6,2,"O=C(O)C[C@H]1CC[C@H](c2ccc3[nH]c(-c4nnc(Nc5ccc(Cl)cc5)o4)nc3c2)CC1 [Example 7, (4-{2-[5-(4-Chlorophenylamino)[1,3,4]oxadiazol-2-yl]-1H-benzimidazol-5-yl}-cyclohexyl)acetic Acid]"
